Consider 2 molecules from paper PMC4649089, “Urea Unfolding Study of E. coli Alanyl-tRNA Synthetase and Its Monomeric Variants Proves the Role of C-Terminal Domain in Stability” (Journal of Amino Acids, 2015).

The target of series [1] is T1, N461 alaRS (Escherichia coli, UniProt P00957).
T1 construct: gene alaS; N-terminal residues 1-461 (aminoacylation and tRNA recognition domain), N-terminal His tag (pET28a), expressed in E. coli BL21(DE3), monomer, 50710 Da
T1 sequence (P00957 2-462): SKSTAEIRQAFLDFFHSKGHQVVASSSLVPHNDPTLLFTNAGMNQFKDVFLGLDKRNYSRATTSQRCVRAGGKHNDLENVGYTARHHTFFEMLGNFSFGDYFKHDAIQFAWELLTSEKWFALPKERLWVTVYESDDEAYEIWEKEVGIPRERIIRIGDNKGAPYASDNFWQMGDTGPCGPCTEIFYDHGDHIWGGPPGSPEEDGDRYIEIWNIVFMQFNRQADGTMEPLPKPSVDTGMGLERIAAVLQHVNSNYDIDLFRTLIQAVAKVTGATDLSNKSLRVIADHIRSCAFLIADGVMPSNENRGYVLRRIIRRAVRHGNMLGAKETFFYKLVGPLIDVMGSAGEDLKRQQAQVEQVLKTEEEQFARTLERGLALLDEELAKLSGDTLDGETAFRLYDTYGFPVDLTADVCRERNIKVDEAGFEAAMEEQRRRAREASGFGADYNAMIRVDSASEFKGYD
The series is described as follows: ANS fluorescence titration. The format is binding. The settings on record: read-out: dissociation constant.

Series [2] addresses T2, N700 alaRS (Escherichia coli, UniProt P00957).
T2 construct: gene alaS; N-terminal residues 1-700, N-terminal His tag (pET20a), expressed in E. coli BL21(DE3), monomer, 77000 Da
T2 sequence (P00957 2-701): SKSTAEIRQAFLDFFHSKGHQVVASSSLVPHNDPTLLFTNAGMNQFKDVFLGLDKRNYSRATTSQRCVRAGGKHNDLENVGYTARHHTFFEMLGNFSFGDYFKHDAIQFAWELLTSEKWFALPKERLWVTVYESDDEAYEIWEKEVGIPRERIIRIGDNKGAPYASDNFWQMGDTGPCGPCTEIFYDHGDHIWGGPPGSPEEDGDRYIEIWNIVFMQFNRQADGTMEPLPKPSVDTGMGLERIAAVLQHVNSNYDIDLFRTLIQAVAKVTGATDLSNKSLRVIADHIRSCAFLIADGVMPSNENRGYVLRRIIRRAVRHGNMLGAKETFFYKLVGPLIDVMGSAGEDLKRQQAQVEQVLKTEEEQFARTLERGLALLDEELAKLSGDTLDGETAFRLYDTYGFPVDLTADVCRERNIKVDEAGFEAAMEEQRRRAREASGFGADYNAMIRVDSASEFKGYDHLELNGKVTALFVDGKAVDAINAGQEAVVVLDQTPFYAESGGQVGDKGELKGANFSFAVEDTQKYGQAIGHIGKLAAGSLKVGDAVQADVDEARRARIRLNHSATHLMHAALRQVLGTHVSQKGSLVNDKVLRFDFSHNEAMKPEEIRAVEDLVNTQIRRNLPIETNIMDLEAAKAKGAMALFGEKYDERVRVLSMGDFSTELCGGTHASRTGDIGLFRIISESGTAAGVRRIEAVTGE
The series is described as follows: ANS fluorescence titration. The format is binding. The following applies: read-out: dissociation constant.

Series [3] addresses T3, alaRS (Escherichia coli, UniProt P00957, G675D).
T3 construct: gene alaS; full length, 875 residues, N-terminal His tag (pET28a), expressed in E. coli BL21(DE3), homodimer, 192500 Da
T3 sequence (P00957 2-876 G675D): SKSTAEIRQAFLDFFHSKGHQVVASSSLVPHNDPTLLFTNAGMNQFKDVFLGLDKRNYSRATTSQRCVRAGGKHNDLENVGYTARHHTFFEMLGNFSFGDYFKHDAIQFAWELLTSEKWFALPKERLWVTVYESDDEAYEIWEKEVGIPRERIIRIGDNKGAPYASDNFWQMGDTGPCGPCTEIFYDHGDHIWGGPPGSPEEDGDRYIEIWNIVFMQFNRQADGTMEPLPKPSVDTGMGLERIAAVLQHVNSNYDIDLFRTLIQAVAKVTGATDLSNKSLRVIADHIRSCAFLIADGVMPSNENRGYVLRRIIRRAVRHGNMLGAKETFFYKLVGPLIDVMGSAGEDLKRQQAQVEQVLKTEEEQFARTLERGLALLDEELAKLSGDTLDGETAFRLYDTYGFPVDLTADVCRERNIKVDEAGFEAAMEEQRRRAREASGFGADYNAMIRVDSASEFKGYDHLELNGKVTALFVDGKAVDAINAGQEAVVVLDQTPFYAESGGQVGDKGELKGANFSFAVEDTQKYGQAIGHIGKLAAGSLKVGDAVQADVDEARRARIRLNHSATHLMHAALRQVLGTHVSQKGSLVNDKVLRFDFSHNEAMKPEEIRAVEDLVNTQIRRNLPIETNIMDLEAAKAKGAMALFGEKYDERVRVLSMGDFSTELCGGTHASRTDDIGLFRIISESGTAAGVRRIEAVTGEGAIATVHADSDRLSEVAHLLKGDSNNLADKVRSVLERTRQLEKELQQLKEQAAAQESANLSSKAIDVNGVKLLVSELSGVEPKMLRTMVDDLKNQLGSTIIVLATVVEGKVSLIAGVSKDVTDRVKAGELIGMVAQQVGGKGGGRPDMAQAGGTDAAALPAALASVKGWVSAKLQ
The series is described as follows: ANS fluorescence titration. The following applies: read-out: dissociation constant. The format is binding.

Series [4] deals with T4, WT-alaRS (Escherichia coli, UniProt P00957).
T4 construct: gene alaS; full length, 875 residues, N-terminal His tag (pET28a), expressed in E. coli BL21(DE3), homodimer, 192500 Da
T4 sequence (P00957 2-876): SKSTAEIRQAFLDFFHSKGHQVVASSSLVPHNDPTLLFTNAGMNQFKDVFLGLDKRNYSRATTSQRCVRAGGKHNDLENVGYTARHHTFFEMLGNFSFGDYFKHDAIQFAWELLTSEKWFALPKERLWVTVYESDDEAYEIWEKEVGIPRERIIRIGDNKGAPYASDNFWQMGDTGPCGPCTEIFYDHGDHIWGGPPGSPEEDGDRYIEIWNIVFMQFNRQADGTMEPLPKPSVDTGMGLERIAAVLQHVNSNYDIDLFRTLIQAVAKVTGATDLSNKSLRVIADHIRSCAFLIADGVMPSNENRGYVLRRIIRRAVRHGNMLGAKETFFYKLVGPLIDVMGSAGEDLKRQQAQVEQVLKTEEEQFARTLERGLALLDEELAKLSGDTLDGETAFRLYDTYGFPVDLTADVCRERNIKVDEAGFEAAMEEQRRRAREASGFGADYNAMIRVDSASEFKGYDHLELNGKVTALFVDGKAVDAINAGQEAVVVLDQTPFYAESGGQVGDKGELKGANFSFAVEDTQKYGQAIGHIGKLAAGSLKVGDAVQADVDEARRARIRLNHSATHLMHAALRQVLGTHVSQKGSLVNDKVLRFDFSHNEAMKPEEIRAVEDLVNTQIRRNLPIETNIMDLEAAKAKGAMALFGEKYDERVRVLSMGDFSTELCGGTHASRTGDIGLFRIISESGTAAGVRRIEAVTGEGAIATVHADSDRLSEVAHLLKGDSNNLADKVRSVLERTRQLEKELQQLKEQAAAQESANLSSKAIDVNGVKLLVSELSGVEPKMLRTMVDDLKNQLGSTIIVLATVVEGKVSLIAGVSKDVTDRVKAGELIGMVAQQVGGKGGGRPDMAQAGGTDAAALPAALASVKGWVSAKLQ
The series is described as follows: ANS fluorescence titration. Type of series: binding. The following applies: read-out: dissociation constant.

Series [5] concerns the molecule itself. The experiment in a line: AUC; sedimentation equilibrium, loading concentrations 5 μM, 10 μM and 20 μM (monomer), 20°C, 100 mM Tris-HCl pH 8.0, global single-species fit in SEDPHAT.

By stoichiometry N is commonly meant the number of molecules, sites or subunits per partner or assembly.

Regarding `O=S(=O)(O)c1cccc2cccc(Nc3ccccc3)c12` [ANS], the Kd in series [1], in series [2], in series [3] and in series [4] was 1000 to 5000 nM in each case.

B1: wild type E. coli alanyl-tRNA synthetase (enzyme, UniProt P00957 1-876, looked up)
chain: MSKSTAEIRQAFLDFFHSKGHQVVASSSLVPHNDPTLLFTNAGMNQFKDVFLGLDKRNYSRATTSQRCVRAGGKHNDLENVGYTARHHTFFEMLGNFSFGDYFKHDAIQFAWELLTSEKWFALPKERLWVTVYESDDEAYEIWEKEVGIPRERIIRIGDNKGAPYASDNFWQMGDTGPCGPCTEIFYDHGDHIWGGPPGSPEEDGDRYIEIWNIVFMQFNRQADGTMEPLPKPSVDTGMGLERIAAVLQHVNSNYDIDLFRTLIQAVAKVTGATDLSNKSLRVIADHIRSCAFLIADGVMPSNENRGYVLRRIIRRAVRHGNMLGAKETFFYKLVGPLIDVMGSAGEDLKRQQAQVEQVLKTEEEQFARTLERGLALLDEELAKLSGDTLDGETAFRLYDTYGFPVDLTADVCRERNIKVDEAGFEAAMEEQRRRAREASGFGADYNAMIRVDSASEFKGYDHLELNGKVTALFVDGKAVDAINAGQEAVVVLDQTPFYAESGGQVGDKGELKGANFSFAVEDTQKYGQAIGHIGKLAAGSLKVGDAVQADVDEARRARIRLNHSATHLMHAALRQVLGTHVSQKGSLVNDKVLRFDFSHNEAMKPEEIRAVEDLVNTQIRRNLPIETNIMDLEAAKAKGAMALFGEKYDERVRVLSMGDFSTELCGGTHASRTGDIGLFRIISESGTAAGVRRIEAVTGEGAIATVHADSDRLSEVAHLLKGDSNNLADKVRSVLERTRQLEKELQQLKEQAAAQESANLSSKAIDVNGVKLLVSELSGVEPKMLRTMVDDLKNQLGSTIIVLATVVEGKVSLIAGVSKDVTDRVKAGELIGMVAQQVGGKGGGRPDMAQAGGTDAAALPAALASVKGWVSAKLQ
notes: alanyl-tRNA synthetase (alaRS), E. coli, full length, printed as 875 residues per subunit; Clone was a gift from Paul Schimmel; homodimer by sedimentation equilibrium and velocity; also called WT-alaRS; WT; source: E. coli BL21 (DE3), pET28a, purified (Ni-NTA agarose)
B1: in series [5], the “stoichiometry N” value was found to be 2.
